Data on 24 compounds can be found in patent US10370371B2, “Substituted pyrimidine Bmi-1 inhibitors” (PTC Therapeutics, Inc., priority 2013, dated 2019).

One data set deals with Bmi-1 protein. Briefly: Sandwich ELISA Assay (Bmi-1 protein level in HT-1080 cells). It counts as cell-based. The method in brief:
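HT-1080 cells were treated with compounds (0.5% DMSO final) for 40-48 h at 37 °C. Lysates were assayed by sandwich ELISA: mouse anti-Bmi-1 capture, rabbit anti-Bmi-1 and HRP anti-rabbit detection, TMB read at OD450 (OD570 reference). Levels were quantified against a recombinant GST-Bmi-1 standard curve (125-8000 pg/mL).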

As to `Cc1nc2ccc(F)cc2n1-c1cc(N)nc(Nc2ccc(C#N)cc2)n1` [Cpd 137, 4-{[4-amino-6-(6-fluoro-2-methyl-1H-benzimidazol-1-yl)pyrimidin-2-yl]amino}benzonitrile], the melting point was in the range of 183 to 185 °C. In addition, the half-maximal effective concentration (EC50) with Bmi-1 protein lay within 100 to 3000 nM.

In turn, `Cc1nc2ccc(F)cc2n1-c1cc(N)nc(Nc2cccc(F)c2)n1` [Cpd 138, 6-(6-fluoro-2-methyl-1H-benzimidazol-1-yl)-N^2-(3-fluorophenyl)pyrimidine-2,4-diamine] displayed a melting point of 239 to 241 °C. Besides, the 50% effective concentration (EC50) in the data set with Bmi-1 protein was in the range of 100 to 3000 nM.

Consider `Cc1cccc(Nc2nc(N)cc(-n3c(C)nc4ccc(F)cc43)n2)c1` [Cpd 139, 6-(6-fluoro-2-methyl-1H-benzimidazol-1-yl)-N^2-(3-methylphenyl)pyrimidine-2,4-diamine], for which the melting point lay within 156 to 158 °C. The compound also yielded an EC50 in the data set on Bmi-1 protein of 100 to 3000 nM.

`COc1cccc(Nc2nc(N)cc(-n3c(C)nc4ccc(F)cc43)n2)c1` [Cpd 140, 6-(6-fluoro-2-methyl-1H-benzimidazol-1-yl)-N^2-(3-methoxyphenyl)pyrimidine-2,4-diamine] yielded a melting point of 127 to 129 °C. This compound also registered a concentration for a half-maximal effect (EC50) in the data set on Bmi-1 protein of 100 to 3000 nM.

`Cc1nc2ccc(F)cc2n1-c1cc(N)nc(Nc2cccc(Cl)c2)n1` [Cpd 141, N^2-(3-chlorophenyl)-6-(6-fluoro-2-methyl-1H-benzimidazol-1-yl)pyrimidine-2,4-diamine] displayed a melting point of 211 to 213 °C. The same compound returned a concentration giving a half-maximal response (EC50) in the data set on Bmi-1 protein of 100 to 3000 nM.

For `COc1ccc(Nc2nc(N)cc(-n3c(C)nc4ccc(F)cc43)n2)cc1F` [Cpd 142, N^2-(3-fluoro-4-methoxyphenyl)-6-(6-fluoro-2-methyl-1H-benzimidazol-1-yl)pyrimidine-2,4-diamine], the melting point fell in the range of 166 to 167 °C. Moreover, the EC50 with Bmi-1 protein lay within 1 to 10 nM.

The compound `Cc1nc2ccc(F)cc2n1-c1cc(N)nc(Nc2ccccc2)n1` [Cpd 143, 6-(6-fluoro-2-methyl-1H-benzimidazol-1-yl)-N^2-phenylpyrimidine-2,4-diamine] registered a melting point of 158 to 161 °C. This compound showed a 50% effective concentration (EC50) with Bmi-1 protein of 100 to 3000 nM.

`COc1ccc(Nc2nc(N)cc(-n3c(C)nc4ccccc43)n2)cc1F` [Cpd 148, N^2-(3-fluoro-4-methoxyphenyl)-6-(2-methyl-1H-benzimidazol-1-yl)pyrimidine-2,4-diamine] returned a melting point of 186 to 187 °C. Also, in the data set with Bmi-1 protein, the EC50 was in the range of 1 to 10 nM.

`CCc1nc2ccccc2n1-c1cc(N)nc(Nc2ccc(Cl)cc2)n1` [Cpd 150, N^2-(4-chlorophenyl)-6-(2-ethyl-1H-benzimidazol-1-yl)pyrimidine-2,4-diamine] displayed a melting point of 172 to 173 °C. Further, the concentration giving a half-maximal response (EC50) in the data set on Bmi-1 protein was 1 to 10 nM.

Consider `CCc1nc2ccccc2n1-c1cc(N)nc(Nc2ccc(OC)cc2)n1` [Cpd 151, 6-(2-ethyl-1H-benzimidazol-1-yl)-N^2-(4-methoxyphenyl)pyrimidine-2,4-diamine], for which the melting point is 144 to 145 °C. Also, the concentration for a half-maximal effect (EC50) with Bmi-1 protein was in the range of 1 to 10 nM.

In turn, `CCc1nc2ccccc2n1-c1cc(N)nc(Nc2ccccc2C)n1` [Cpd 152, 6-(2-ethyl-1H-benzimidazol-1-yl)-N^2-(2-methylphenyl)pyrimidine-2,4-diamine] had a melting point of 119 to 120 °C. In the data set on Bmi-1 protein, this compound had a 50% effective concentration (EC50) of 100 to 3000 nM.

`CCc1nc2ccccc2n1-c1cc(N)nc(Nc2ccc3c(c2)OCO3)n1` [Cpd 154, N^2-(1,3-benzodioxol-5-yl)-6-(2-ethyl-1H-benzimidazol-1-yl)pyrimidine-2,4-diamine] registered a melting point of 119 to 121 °C. The same compound came in with an EC50 with Bmi-1 protein of 10 to 100 nM.

Take `CCc1nc2ccccc2n1-c1cc(N)nc(Nc2ccc(OC)c(F)c2)n1` [Cpd 155, 6-(2-ethyl-1H-benzimidazol-1-yl)-N^2-(3-fluoro-4-methoxyphenyl)pyrimidine-2,4-diamine]: the melting point lay in the range of 104 to 106 °C. The compound also displayed a 50% effective concentration (EC50) in the data set on Bmi-1 protein of 1 to 10 nM.

As for `CCc1nc2ccccc2n1-c1cc(N)nc(Nc2ccc(OC)c(Cl)c2)n1` [Cpd 156, N^2-(3-chloro-4-methoxyphenyl)-6-(2-ethyl-1H-benzimidazol-1-yl)pyrimidine-2,4-diamine], the melting point was 100 to 103 °C. Also, the concentration giving a half-maximal response (EC50) in the data set on Bmi-1 protein is 10 to 100 nM.

On to `COc1ccc(Nc2nc(N)cc(-n3c(C)nc4ccccc43)n2)cn1` [Cpd 157, N^2-(6-methoxypyridin-3-yl)-6-(2-methyl-1H-benzimidazol-1-yl)pyrimidine-2,4-diamine], for which the melting point is 104 to 106 °C. Besides, in the data set on Bmi-1 protein, the EC50 was 10 to 100 nM.

`CCc1nc2ccc(F)cc2n1-c1cc(N)nc(Nc2ccc(Cl)cc2)n1` [Cpd 158, N^2-(4-chlorophenyl)-6-(2-ethyl-6-fluoro-1H-benzimidazol-1-yl)pyrimidine-2,4-diamine] displayed a melting point of 185 to 187 °C. In addition, the EC50 in the data set on Bmi-1 protein was 1 to 10 nM.

`CCc1nc2ccc(F)cc2n1-c1cc(N)nc(Nc2ccccc2)n1` [Cpd 159, 6-(2-ethyl-6-fluoro-1H-benzimidazol-1-yl)-N^2-phenylpyrimidine-2,4-diamine]: the melting point is 160 to 162 °C. In the data set on Bmi-1 protein, this compound had an EC50 of 100 to 3000 nM.

For the compound `CCc1nc2ccc(F)cc2n1-c1cc(N)nc(Nc2ccc(C)cc2)n1` [Cpd 160, 6-(2-ethyl-6-fluoro-1H-benzimidazol-1-yl)-N^2-(4-methylphenyl)pyrimidine-2,4-diamine], the melting point was in the range of 187 to 189 °C. This compound also returned a concentration for a half-maximal effect (EC50) with Bmi-1 protein of 1 to 10 nM.

Regarding `CCc1nc2ccc(F)cc2n1-c1cc(N)nc(Nc2ccc(OC)cc2)n1` [Cpd 161, 6-(2-ethyl-6-fluoro-1H-benzimidazol-1-yl)-N^2-(4-methoxyphenyl)pyrimidine-2,4-diamine], the melting point lay within 166 to 168 °C. Also, the concentration giving a half-maximal response (EC50) in the data set with Bmi-1 protein lay within 1 to 10 nM.

In the case of `CCc1nc2ccc(F)cc2n1-c1cc(N)nc(Nc2ccc(N(C)C)cc2)n1` [Cpd 162, N^2-[4-(dimethylamino)phenyl]-6-(2-ethyl-6-fluoro-1H-benzimidazol-1-yl)pyrimidine-2,4-diamine], the melting point was in the range of 230 to 232 °C. For the same compound, in the data set on Bmi-1 protein, the EC50 lay in the range of 10 to 100 nM.

`CCc1nc2ccc(F)cc2n1-c1cc(N)nc(Nc2cccc(F)c2)n1` [Cpd 163, 6-(2-ethyl-6-fluoro-1H-benzimidazol-1-yl)-N^2-(3-fluorophenyl)pyrimidine-2,4-diamine] had a melting point of 169 to 171 °C. Moreover, in the data set on Bmi-1 protein, the EC50 lay within 100 to 3000 nM.

Compound `CCc1nc2ccc(F)cc2n1-c1cc(N)nc(Nc2cccc(OC)c2)n1` [Cpd 165, 6-(2-ethyl-6-fluoro-1H-benzimidazol-1-yl)-N^2-(3-methoxyphenyl)pyrimidine-2,4-diamine] gave a melting point of 133 to 135 °C. The compound also returned an EC50 in the data set on Bmi-1 protein of 100 to 3000 nM.

In turn, `CCc1nc2ccc(F)cc2n1-c1cc(N)nc(Nc2cccc(C)c2)n1` [Cpd 166, 6-(2-ethyl-6-fluoro-1H-benzimidazol-1-yl)-N^2-(3-methylphenyl)pyrimidine-2,4-diamine] returned a melting point of 149 to 150 °C. Also, the EC50 in the data set on Bmi-1 protein lay in the range of 100 to 3000 nM.

As for `CCc1nc2ccc(F)cc2n1-c1cc(N)nc(Nc2ccc(C#N)cc2)n1` [Cpd 167, 4-{[4-amino-6-(2-ethyl-6-fluoro-1H-benzimidazol-1-yl)pyrimidin-2-yl]amino}benzonitrile], the melting point lay in the range of 252 to 255 °C. In the data set on Bmi-1 protein, the EC50 fell in the range of 100 to 3000 nM.

Broadly, the EC50 is the midpoint of the concentration-response curve. The low end stands for greater potency, the high end for weaker potency. One may read the melting point as the temperature of the solid-liquid transition.
